The values below come from US12391962B2, “Targeting peptide to deliver a compound to oocytes” (THE PENN STATE RESEARCH FOUNDATION, priority 2017, dated 2025).

Assay [1] relates to B. tabaci ovaries. The assay can be described thus: Validation of the BtKV ovary targeting ligand (epifluorescence of dissected ovaries). The class given is in vivo, Bemisia tabaci. To be noted: ovaries dissected 24 hours post-injection; vs PBS-injected controls. The procedure: For initial experiments B. tabaci adults of unknown age and mating status were aspirated from the colony cage into 2-dram screw cap vials, placed in ice to anesthetize the insects, sexed, and transferred to a standard plain glass slide with double-sided tape on a chill table. For later experiments we established a synchronous colony so that we could control for the age of injected insects (see below). For localization of BtKV fusion protein into the embryos, female B. tabaci were injected in the abdomen with BtKV-mCherry fusion protein (3 mg/ml) or PBS control using quartz capillary needles. Samples were collected 24 hours post injection and ovaries dissected onto a concavity microscope slide with a glass coverslip and imaged by epifluorescence microscopy.
We therefore designed a new targeting peptide suitable for this insect species based on its endogenous vitellogenin protein (“BtKV”; […] (SEQ ID NO: 30)) (see methods). B. tabaci oocyte development is asynchronous with stage I, II, III, and IV at 11 days post eclosion or older^19 where oocytes are always developing. Developmental phase II oocytes have the highest amount of vitellogenin uptake via endocytosis and nutrient cord^19. After injection of BtKV-mCherry into reproductive adult B. tabaci females, ovaries were dissected after 24 hours and visualized for red fluorescence.

Assay [2] relates to B. tabaci white gene. Kind of assay: Knockout of the B. tabaci white gene by ReMOT Control (adult female injection). The class given is in vivo, Bemisia tabaci. As to conditions: BtKV as the targeting peptide. The method, then: The females were injected and placed on a piece of soybean leaflet in a petri dish with a moist paper towel wrapped around the stem and another paper towel on the bottom plate to prolong the life of the leaflet. Water and liquid fertilizer were added as needed. Females were removed from the leaflet 2 weeks post injection. The petri dishes were incubated at 28° C., 16L/8D cycle, in a humidified Heratherm IMH750-S reach-in chamber, and the progeny of injected females screened visually for altered eye color in nymphs or adults using an Olympus SZX7 stereomicroscope. Mutations in insects showing altered eye color were confirmed by PCR using PHIRE Tissue Direct PCR Master Mix (Thermo Fischer Scientific), the amplicon was cloned into pJET1.2, and clones were submitted for Sanger sequencing.
For proof of principle gene editing experiments, we chose the white gene, which is an ABC transporter protein responsible for transport of ommochrome pigments into the eyes.

Regarding “KPYGVYKTMEDSV (listed as Bemisia tabaci) [BtKV]”, the “fluorescent cargo in oocytes” value in assay [1] is given as “visible in dissected mature oocytes”. Further, in assay [2], the “independent replicate injection experiments from which white-eye nymphal offspring were recovered” value was 7 of 14.
